# Measurements reported in article PMC2705655, “The Nicotinic Acetylcholine Receptors of the Parasitic Nematode Ascaris suum: Formation of Two Distinct Drug Targets by Varying the Relative Expression Levels of Two Subunits” (PLoS Pathogens, 2009).
# Experiments:
# Assay in all cases: two-electrode voltage clamp, Xenopus oocytes
# Assay type in all cases: cell-based
# [1] = target: T1, 5:1 Asu-unc-38:Asu-unc-29 receptor, putative (Asu-UNC-38)3(Asu-UNC-29)2, N-subtype nAChR (Ascaris suum, UniProt A7UFK6+A9XWS2)
# T1 construct: full-length cDNAs of both subunits in pT7TS, cRNAs co-injected 5:1 into Xenopus oocytes; no tag
# T1 sequence (A7UFK6 22-513): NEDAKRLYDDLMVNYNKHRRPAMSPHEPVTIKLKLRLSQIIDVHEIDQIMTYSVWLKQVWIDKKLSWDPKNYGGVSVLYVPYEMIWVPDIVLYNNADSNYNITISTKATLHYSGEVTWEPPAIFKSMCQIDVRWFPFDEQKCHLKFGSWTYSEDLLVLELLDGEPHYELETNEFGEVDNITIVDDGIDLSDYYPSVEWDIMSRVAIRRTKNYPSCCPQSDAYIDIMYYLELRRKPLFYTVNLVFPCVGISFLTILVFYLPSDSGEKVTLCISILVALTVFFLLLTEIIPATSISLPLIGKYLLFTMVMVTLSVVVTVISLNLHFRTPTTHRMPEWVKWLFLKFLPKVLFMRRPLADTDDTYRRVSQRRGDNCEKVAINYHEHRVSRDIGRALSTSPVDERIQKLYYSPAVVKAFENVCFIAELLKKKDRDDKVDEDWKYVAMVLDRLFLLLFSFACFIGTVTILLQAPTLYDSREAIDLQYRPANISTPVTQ
# T1 sequence (A9XWS2 27-513): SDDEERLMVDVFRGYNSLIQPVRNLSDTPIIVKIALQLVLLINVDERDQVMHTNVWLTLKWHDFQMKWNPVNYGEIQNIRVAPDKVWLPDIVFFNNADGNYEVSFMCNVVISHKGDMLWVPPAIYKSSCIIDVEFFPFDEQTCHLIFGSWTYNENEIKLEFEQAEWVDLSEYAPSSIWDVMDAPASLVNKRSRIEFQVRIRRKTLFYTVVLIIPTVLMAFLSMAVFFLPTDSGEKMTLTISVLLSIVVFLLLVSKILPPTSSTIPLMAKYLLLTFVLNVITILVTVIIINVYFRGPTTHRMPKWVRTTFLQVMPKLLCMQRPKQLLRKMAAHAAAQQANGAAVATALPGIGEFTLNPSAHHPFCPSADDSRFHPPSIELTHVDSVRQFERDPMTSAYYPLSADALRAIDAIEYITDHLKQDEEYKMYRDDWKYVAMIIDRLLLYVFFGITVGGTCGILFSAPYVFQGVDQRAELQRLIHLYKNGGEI
# Excerpt: two-electrode voltage clamp, Xenopus oocytes on 5:1 Asu-unc-38:Asu-unc-29 receptor, putative (Asu-UNC-38)3(Asu-UNC-29)2, N-subtype nAChR
# [2] = target: T2, 1:5 Asu-unc-38:Asu-unc-29 receptor, putative (Asu-UNC-38)2(Asu-UNC-29)3, L-subtype nAChR (Ascaris suum, UniProt A7UFK6+A9XWS2); settings: -60 mV; cRNA ratio 1:5; response too small to quantify
# T2 construct: full-length cDNAs of both subunits in pT7TS, cRNAs co-injected 1:5 into Xenopus oocytes; no tag
# T2 sequence (A7UFK6 22-513): T1 sequence (A7UFK6 22-513)
# T2 sequence (A9XWS2 27-513): T1 sequence (A9XWS2 27-513)
# [3] = target: T1, 5:1 Asu-unc-38:Asu-unc-29 receptor, putative (Asu-UNC-38)3(Asu-UNC-29)2, N-subtype nAChR; settings: -60 mV; cRNA ratio 5:1; response too small to quantify
# [4] = target: T2, 1:5 Asu-unc-38:Asu-unc-29 receptor, putative (Asu-UNC-38)2(Asu-UNC-29)3, L-subtype nAChR
# Excerpt: two-electrode voltage clamp, Xenopus oocytes on 1:5 Asu-unc-38:Asu-unc-29 receptor, putative (Asu-UNC-38)2(Asu-UNC-29)3, L-subtype nAChR
SMILES,EC50 [1] [µM],"two-electrode voltage clamp, Xenopus oocytes [2]","two-electrode voltage clamp, Xenopus oocytes [3]",EC50 [4] [µM]
CN1CCCN=C1/C=C/c1cccc(O)c1 [oxantel],4.07,but gave a negligible response to oxantel,–,–
CN1CCCN=C1/C=C/c1cccs1 [pyrantel],–,–,but gave very little response to pyrantel,0.398
